{
  "source": "paper PMC5617480",
  "about": "(Oncotarget, 2017)",
  "key": {"BEL-7404 cells": {"test_system": "BEL-7404 cells", "assay": "Senescence induction (SA-β-Gal staining)", "assay_type": "cell-based, human", "settings": "BEL-7404, 2.0 μM, 7 d, compared with complexes 4 and 5", "method": "Platinum(II)-based drugs were widely used in anticancer chemotherapies, therefore, we performed experiments to test the potency of chiral platinum(II) complexes 4–6 for inducing senescence and apoptosis in BEL-7404 cells. […] We next investigated the effect of complexes 4–6 on the induction of apoptosis. BEL-7404 cells were incubated with complexes 4 (10 and 20 μM), 5 (10 and 20 μM) and 6 (5, 10 and 20 μM) for 24 h, respectively, and then these cells staining with PI and Annexin-V-FITC were determined by flow cytometry (Figure 3A and Supplementary Figure 18). […] Cells were treated with complexes 4–6 at 10 μM for 48 h, the cell cycle arrest was determined by using flow cytometry. […]\nApoptosis analysis c-myc antibody, or anti-β-actin primary antibody and the Apoptosis was detected by flow cytometric analysis corresponding secondary antibody were used to detect of annexin V staining. […] Then, cells were incubated with annexin V-FITC and PI for 1.0 h at Staining for SA-β-Gal activity was carried out room temperature in the dark and immediately analyzed according to Moore and Chen reports. […] The data are presented as biparametric After the long-term incubation with complexes 4–6, the dot plots showing PI red fluorescence vs annexin V-FITC growth medium was aspirated and the BEL-7404 cells green fluorescence. were fixed in 2% formaldehyde/0.2% glutaraldehyde for 15.0 min at room temperature. […]"}, "KM mice": {"test_system": "KM mice", "assay": "Acute toxicity studies, single dose", "assay_type": "in vivo", "settings": "for Death (%) on day 14 / No. of death mice, Five-fourteen day / No. of death mice, Four day / No. of death mice, One day / No. of death mice, Three day / No. of death mice, Two day / Total death: 10 animals", "method": "We further evaluated the safety of chiral platinum(II) complex 6 by using KM mice via the tail vein injection with a single dose of complex 6 at 15, 12, 9.6 and 7.8 mg/kg, respectively. After 14 days, the mortality rate of mice was calculated (Supplementary Figure 31 and Supplementary Table 10). […] However, at higher doses (>7.8 mg/kg), death of mice occurred. Thus, the doses of 7.8 mg/kg of complex 6 were employed in the further in vivo experiment."}, "mice": {"test_system": "mice", "assay": "In vivo toxicity of multiple doses", "settings": "monitored another week", "method": "We then assessed the in vivo toxicity of multiple doses of complex 6. The mice was treated with complex 6 at 7.8 mg/kg daily or per two day by iv injection up to 7 days, and then monitored for another week."}, "[1]": {"settings": "single tail vein dose 7.8 mg/kg"}, "[2]": {"settings": "single tail vein dose 9.6 mg/kg"}},
  "data": [
    {"substance": "cis-[PtCl2(S-(–)-FOA)] [complex 6]", "values": [
      {"measurement": "level of senescence (β-galactosidase stain)", "setting": "BEL-7404 cells", "value": "higher level of senescence"},
      {"measurement": "Death (%) on day 14", "setting": "KM mice; [1]", "value": 0, "unit": "%"},
      {"measurement": "No. of death mice, Five-fourteen day", "setting": "KM mice; [1]", "value": 0},
      {"measurement": "No. of death mice, Four day", "setting": "KM mice; [1]", "value": 0},
      {"measurement": "No. of death mice, One day", "setting": "KM mice; [1]", "value": 0},
      {"measurement": "No. of death mice, Three day", "setting": "KM mice; [1]", "value": 0},
      {"measurement": "No. of death mice, Two day", "setting": "KM mice; [1]", "value": 0},
      {"measurement": "Total death", "setting": "KM mice; [1]", "value": 0},
      {"measurement": "acute toxicity finding", "setting": "KM mice; single tail vein dose 7.8 mg/kg, 14 days", "value": "did not kill any animal or cause any abnormality"},
      {"measurement": "Death (%) on day 14", "setting": "KM mice; [2]", "value": 10, "unit": "%"},
      {"measurement": "No. of death mice, Five-fourteen day", "setting": "KM mice; [2]", "value": 0},
      {"measurement": "No. of death mice, Four day", "setting": "KM mice; [2]", "value": 0},
      {"measurement": "No. of death mice, One day", "setting": "KM mice; [2]", "value": 0},
      {"measurement": "No. of death mice, Three day", "setting": "KM mice; [2]", "value": 0},
      {"measurement": "No. of death mice, Two day", "setting": "KM mice; [2]", "value": 1},
      {"measurement": "Total death", "setting": "KM mice; [2]", "value": 1},
      {"measurement": "Death (%) on day 14", "setting": "KM mice; single tail vein dose 12 mg/kg", "value": 40, "unit": "%"},
      {"measurement": "No. of death mice, Five-fourteen day", "setting": "KM mice; single tail vein dose 12 mg/kg", "value": 0},
      {"measurement": "No. of death mice, Four day", "setting": "KM mice; single tail vein dose 12 mg/kg", "value": 0},
      {"measurement": "No. of death mice, One day", "setting": "KM mice; single tail vein dose 12 mg/kg", "value": 3},
      {"measurement": "No. of death mice, Three day", "setting": "KM mice; single tail vein dose 12 mg/kg", "value": 1},
      {"measurement": "No. of death mice, Two day", "setting": "KM mice; single tail vein dose 12 mg/kg", "value": 1},
      {"measurement": "Death (%) on day 14", "setting": "KM mice; single tail vein dose 15 mg/kg", "value": 90, "unit": "%"},
      {"measurement": "No. of death mice, Five-fourteen day", "setting": "KM mice; single tail vein dose 15 mg/kg", "value": 0},
      {"measurement": "No. of death mice, Four day", "setting": "KM mice; single tail vein dose 15 mg/kg", "value": 0},
      {"measurement": "No. of death mice, One day", "setting": "KM mice; single tail vein dose 15 mg/kg", "value": 7},
      {"measurement": "No. of death mice, Three day", "setting": "KM mice; single tail vein dose 15 mg/kg", "value": 1},
      {"measurement": "No. of death mice, Two day", "setting": "KM mice; single tail vein dose 15 mg/kg", "value": 1},
      {"measurement": "Total death", "setting": "KM mice; single tail vein dose 15 mg/kg", "value": 9},
      {"measurement": "safety of multiple doses", "setting": "mice; 7.8 mg/kg daily iv up to 7 days", "value": "safe for mice"},
      {"measurement": "body weight change", "setting": "mice; 7.8 mg/kg daily or per two day iv up to 7 days", "value": "Moderate body weight increase"}
    ]}
  ]
}
